# Laboratory results taken from paper PMC7935272 (PLoS Pathogens, 2021).
# Values joined by “and” are separate entries in the source; they are usually repeats but may differ in a detail not shown here. Equal entries are not always repeated. “Also recorded” adds a separate entry of the source. Where two headings read alike, the source gives them in different places.
# Tests used:
# [1] = system: MeV mRNA transcripts (P, H, L); assay: qRT-PCR of MeV primary transcription in infected Vero-hSLAM cells; format: cell-based; settings: for Transcription gradient, H mRNA, Predicted (LS) mean 2 / Transcription gradient, L mRNA, Predicted (LS) mean 2 / Transcription gradient, P mRNA, Predicted (LS) mean 2: Figure 3I, N2 3
# Description: Total RNA was extracted four hours after infection using Trizol and subjected to reverse transcription using either oligo-dT primers. Subsequent qPCR used primer pairs specific for MeV P mRNA, MeV H mRNA, MeV L mRNA, or human GAPDH mRNA, respectively. qPCR was performed using an Applied Biosystems 7500 Real-Time PCR System with a StepOnePlus Real-Time PCR System. Samples were normalized for GAPDH.
# [2] = cited from earlier work
# MeV [3] = settings: cited from earlier work
# WT MeV L-P complexes = WT MeV L-P complexes (Measles virus, UniProt Q9WMB3); assay: Primer extension RdRP assay, GTP only (first nucleotide), L WT; format: biochemical; settings: 5 h, read-out: first nucleotide incorporation signal (FIG 4D densitometry, first row = 100)
# MeV L = molecular target: T1, MeV L (Measles virus, UniProt P12576); assay: MeV minigenome dose-response assay, L WT; format: cell-based; settings: 40 h, ERDRP-0519 0.005 µM; L WT; Figure 1D; read-out: minigenome activity, individual repeat
# T1 construct: expressed in transfected cells; host or cells: BSR-T7/5
# MeV P-L complexes = MeV P-L complexes (Measles virus, UniProt Q9WMB3); assay: In vitro RdRP assay on 25-nt RSV promoter template (de novo initiation and back-priming); settings: 25-mer RSV promoter template
# MeV [4] = assay: Antiviral dose-response assay, MeV-NanoPEST reporter virus in Vero-hSLAM cells
# RSV L = RSV L (Human respiratory syncytial virus A, UniProt P28887); assay: Biolayer interferometry, RSV L specificity control; format: binding; settings: for steady-state BLI sensor response: S7 C
# MeV L full length = MeV L full length (Measles virus, UniProt Q9WMB3); assay: Biolayer interferometry, full-length MeV P-L; format: binding; settings: for S5 A BLI sensorgram response / S5 D BLI response versus compound conc.: MeV L full length; for steady-state BLI sensor response: S7 A
# [5] = system: MeV L-P complexes L T776A; format: biochemical; settings: primer extension, L T776A vs WT
structure (smiles),measurement,setting,value
"Cn1nc(C(F)(F)F)cc1C(=O)Nc1ccc(S(=O)(=O)N2CCCC[C@H]2CCN2CCOCC2)cc1 [ERDRP-0519, S(=O)(=O)(N1[C@H](CCN2CCOCC2)CCCC1)c1ccc(NC(=O)c2n(C)nc(C(F)(F)F)c2)cc1]",MeV P mRNA levels,"[1]; 0.2 μM or 0.8 μM, 4 hours after infection, recMeV-Anc MOI 3",significantly decreased; also recorded: dose-dependently reduced
same,"Transcription gradient, H mRNA, Predicted (LS) mean 2",[1]; 0.2 µM,0.1422
same,"Transcription gradient, L mRNA, Predicted (LS) mean 2",[1]; 0.2 µM,0.005639
same,"Transcription gradient, P mRNA, Predicted (LS) mean 2",[1]; 0.2 µM,1.063
same,"Transcription gradient, H mRNA, Predicted (LS) mean 2",[1]; 0.8 µM,0.1249
same,"Transcription gradient, L mRNA, Predicted (LS) mean 2",[1]; 0.8 µM,0.007941
same,"Transcription gradient, P mRNA, Predicted (LS) mean 2",[1]; 0.8 µM,1.011
same,CC50,[2],75000 nM
same,IC50,MeV [3]; Figure 7A source data,59 nM
same,EC50,"MeV [3]; experimental activity, read-out: EC50",59 nM
same,EC50,MeV [3]; read-out: EC50 in cell-based anti-MeV assays,70 to 230 nM
same,remaining activity at 0.0152416 µM,WT MeV L-P complexes; 0.0152416 µM,92.5%
same,remaining activity at 0.0457247 µM,WT MeV L-P complexes; 0.0457247 µM,96.8%
same,remaining activity at 0.137174 µM,WT MeV L-P complexes; 0.137174 µM,64.3%
same,remaining activity at 0.411523 µM,WT MeV L-P complexes; 0.411523 µM,40.5%
same,remaining activity at 1.23457 µM,WT MeV L-P complexes; 1.23457 µM,30.4%
same,remaining activity at 3.7037 µM,WT MeV L-P complexes; 3.7037 µM,30%
same,remaining activity at 11.1111 µM,WT MeV L-P complexes; 11.1111 µM,27.6%
same,remaining activity at 33.3333 µM,WT MeV L-P complexes; 33.3333 µM,26%
same,remaining activity at 0.005 µM,MeV L,97%
same,3'-elongation after backpriming,MeV P-L complexes,equivalently dose-dependently blocked
same,EC50,MeV [4],200 nM
same,"MeV inhibition, normalized reporter signal (Figure 5B)",MeV [4]; cpd concentration 0.009145,105.005 and 86.0196
same,"MeV inhibition, normalized reporter signal (Figure 5B)",MeV [4]; cpd concentration 0.027435,126.572 and 81.3143
same,"MeV inhibition, normalized reporter signal (Figure 5B)",MeV [4]; cpd concentration 0.082305,101.803 and 75.4494
same,"MeV inhibition, normalized reporter signal (Figure 5B)",MeV [4]; cpd concentration 0.246914,43.9689 and 25.1431
same,"MeV inhibition, normalized reporter signal (Figure 5B)",MeV [4]; cpd concentration 0.740741,3.4563 and 3.061
same,"MeV inhibition, normalized reporter signal (Figure 5B)",MeV [4]; cpd concentration 2.22222,0.8619 and 1.175
same,"MeV inhibition, normalized reporter signal (Figure 5B)",MeV [4]; cpd concentration 6.66667,0.4673 and 0.8278
same,binding to RSV polymerase,RSV L; BLI specificity control,No appreciable binding; also recorded: no binding was detected
same,steady-state BLI sensor response,RSV L; 0.003 uM,0.004459
same,steady-state BLI sensor response,RSV L; 0.009 uM,0.00801
same,steady-state BLI sensor response,RSV L; 0.027 uM,0.008695
same,steady-state BLI sensor response,RSV L; 0.24 uM,0.01534
same,steady-state BLI sensor response,RSV L; 0.74 uM,0.01342
same,steady-state BLI sensor response,RSV L; 2.22 uM,0.007742
same,steady-state BLI sensor response,RSV L; 6.67 uM,0.01053
same,steady-state BLI sensor response,RSV L; 20 uM,0.00593
same,S5 A BLI sensorgram response,"MeV L full length; 0.003 µM, time 0 s",-0.0003139
same,S5 A BLI sensorgram response,"MeV L full length; 0.003 µM, time 0.2 s",-0.001098
same,S5 A BLI sensorgram response,"MeV L full length; 0.003 µM, time 0.4 s",-0.001645
same,S5 A BLI sensorgram response,"MeV L full length; 0.003 µM, time 0.6 s",-0.002393
same,S5 A BLI sensorgram response,"MeV L full length; 0.027 µM, time 0 s",0.0009777
same,S5 A BLI sensorgram response,"MeV L full length; 0.027 µM, time 0.2 s",0.001373
same,S5 A BLI sensorgram response,"MeV L full length; 0.027 µM, time 0.4 s",0.001785
same,S5 A BLI sensorgram response,"MeV L full length; 0.027 µM, time 0.6 s",0.001728
same,S5 A BLI sensorgram response,"MeV L full length; 0.08 µM, time 0 s",0.003123
same,S5 A BLI sensorgram response,"MeV L full length; 0.08 µM, time 0.2 s",0.003018
same,S5 A BLI sensorgram response,"MeV L full length; 0.08 µM, time 0.4 s",0.00257
same,S5 A BLI sensorgram response,"MeV L full length; 0.08 µM, time 0.6 s",0.002431
same,S5 A BLI sensorgram response,"MeV L full length; 0.74 µM, time 0 s",0.002177
same,S5 A BLI sensorgram response,"MeV L full length; 0.74 µM, time 0.2 s",0.002548
same,S5 A BLI sensorgram response,"MeV L full length; 0.74 µM, time 0.4 s",0.002706
same,S5 A BLI sensorgram response,"MeV L full length; 0.74 µM, time 0.6 s",0.002805
same,S5 A BLI sensorgram response,"MeV L full length; 2.22 µM, time 0 s",0.01086
same,S5 A BLI sensorgram response,"MeV L full length; 2.22 µM, time 0.2 s",0.01025
same,S5 A BLI sensorgram response,"MeV L full length; 2.22 µM, time 0.4 s",0.009623
same,S5 A BLI sensorgram response,"MeV L full length; 2.22 µM, time 0.6 s",0.009062
same,S5 D BLI response versus compound conc.,MeV L full length; compound conc. 0.003 uM,0.005655
same,S5 D BLI response versus compound conc.,MeV L full length; compound conc. 0.027 uM,0.009916
same,S5 D BLI response versus compound conc.,MeV L full length; compound conc. 0.08 uM,0.008265
same,S5 D BLI response versus compound conc.,MeV L full length; compound conc. 0.74 uM,0.01334
same,steady-state BLI sensor response,MeV L full length; 0.003 uM,0.006846
same,steady-state BLI sensor response,MeV L full length; 0.027 uM,0.008208
same,steady-state BLI sensor response,MeV L full length; 0.08 uM,0.009438
same,steady-state BLI sensor response,MeV L full length; 0.74 uM,0.01375
same,steady-state BLI sensor response,MeV L full length; 6.67 uM,0.01276
same,steady-state BLI sensor response,MeV L full length; 20 uM,0.01504
same,IC50 increase,[5],2.5 fold
